Source: patent US12553882B2, “Use of PAK4 and CRTC1 for treatment or diagnosis of brain degenerative disease” (CHUNGBUK NATIONAL UNIVERSITY INDUSTRY-ACADEMIC COOPERATION …, priority 2017, dated 2026)

Assays:
rat CRTC1 = assay: Knock-down of CRTC1 by lentiviral shRNA, 6-OHDA rat model; format: in vivo; conditions: lentiviral rat CRTC1 hCMV-TurboGFP shRNA
rat PAK4 = assay: Knock-down of PAK4 by lentiviral shRNA; format: in vivo; conditions: lentiviral rat PAK4 hCMV-TurboGFP shRNA
Excerpt: Lentiviral rat PAK4 hCMV-TurboGFP shRNAs were purchased from Dharmacon and Open Biosystems. […] In this case, lentiviral shRNA control particles (#S-005000-01) were used as a control.
Protein extracts were obtained by conventional protein extraction methods, and immunoblots were visualized using HRP-conjugated secondary antibodies to IgG and chemiluminescent substrate (SuperSignal Ultra; Pierce). For quantitative analysis of protein levels, each band density of the immunoblots was quantitatively analyzed using the National Institutes of Health ImageJ software (National institutes of Health).
As a method for checking the action of PAK4 in Parkinson's disease, the present inventors injected a lent viral green fluorescent protein (GFP) small hairpin control (shCtrl) or lentiviral-GFP-shPAK4 construct into the right striatum of the rat brain to analyze the role of PAK4 in Parkinson's disease.

TH-positive DA neurons = assay: PF-3758309 stereotaxic injection into the SN, analysis of TH-positive neurons and fibers; format: in vivo, rat; conditions: PF-3758309 injected into the SN (substantia nigra)
Protocol: Mice were anesthetized with chloral hydrate (360 mg/kg, intraperitoneal [i.p.] injection) and then placed in a stereotaxic instrument (Kopf Instruments, Tujunga, CA, USA). The injection site coordinates in the right SN were 5.3 mm AP, 2.0 mm ML and 7.6 mm DV, from the bregma. Then, PF-3758309 (0.5 μg) was injected using a Hamilton syringe needle (33-gauge needle). In this case, the flow rate of the injection solution (2 ul) was allowed to be at 0.25 ul/min. After the injection, the syringe needle was maintained as it is for 5 more minutes to suppress the reflux of the solution. […]
Human brain tissue slices embedded with paraffin were deparaffinized with xylene. […] Samples were reacted with Alexa 488- or Alexa 594-conjugated secondary antibodies for fluorescence microscopic analysis. […] For Nissl-staining, SN tissue was fixed on a gelatin-coated slide and dried at room temperature for 1 hour, stained with 0.5% cresyl violet, dehydrated, covered with a cuff slip and analyzed using a bright field microscopy (Nikon).
The unbiased stereological analysis of the total number of TH+ neurons was performed using an optical fractionator method and Stereo Investigator software (MBF Bioscience, Williston, VT). The method is an assay which is not influenced by reference volume (SNpc) or size of counted elements (neurons). The total number of neurons was calculated by Optical Fractionator Equation. […]

Compound | knock-down of the expression of CRTC1 (rat CRTC1) | knock-down of the expression of PAK4 (rat PAK4) | other results
SH-111776-01: lentiviral rat CRTC1 shRNA, CACGATATACTCTGTCCAC | effectively knocked down | – | –
SH-082018-02: lentiviral rat PAK4 shRNA, TGATCGAAGCCTGTGTGTA, Dharmacon and Open Biosystems | – | effectively knocked down | –
Cc1nc(Nc2[nH]nc3c2CN(C(=O)N[C@H](CN(C)C)c2ccccc2)C3(C)C)c2sccc2n1 [PF-3758309] | – | – | TH-positive DA neurons (TH-positive DA neurons): decreased
SH-082018-01: lentiviral rat PAK4 shRNA, TTACGCAAGTCCATCTTCT, Dharmacon and Open Biosystems | – | effectively knocked down | –
SH-111776-02: lentiviral rat CRTC1 shRNA, TCGCTAAATTTCCGCGGAT | effectively knocked down | – | –
